These results are taken from patent publication US20070135437A1, “Modulation of neurodegenerative diseases” (ALSGEN, INC., priority 2005, published 2007).

The first assay relates to hSOD-1 protein levels in HeLa cells. Briefly: SOD-1 ELISA on lysates of HeLa cells after 72 h incubation with compound. Type of assay: cell-based, human. Conditions: HeLa cells, 72 hours; dose related, maximal by 10 μM. Here is the method:
Briefly, cells were maintained in Dulbecco's Minimal Essential Medium, with high glucose, supplemented with glutamine, 4 mM, certified fetal bovine serum, 10%, and penicillin, streptomycin, and nystatin (all from Invitrogen). Incubation conditions were 37 degrees and 99% relative humidity, with CO2 at 5%. Cultures were passaged when they reached 90% confluence. For pharmacological experiments, cells were plated into sterile tissue culture treated 96 well plates at a density of 3,500 cells/well in 150 μl medium. After plating and 6 hours for attachment, drugs were added to the medium in a concentration of 10 μM. Following 72 hours of incubation with the drugs, the cells were photographed at 100× using an inverted microscope and digital camera, so that cytotoxicity could be evaluated. After photodocumentation, the medium was removed and the cells were washed once with phosphate buffered saline, and then 50-100 μl molecular biology grade water containing a protease inhibitor cocktail was added. After 10 min incubation, the plates were placed in −80 degrees to induce complete lysis. Plates were then thawed and 4-25 μl was transferred from each well into a maxsorp ELISA plate coated with anti-human SOD-1 antibody, which contained 75-100 μl phosphate buffered saline or blocking buffer. A second antibody pair (a polyclonal anti-SOD-1/HRP conjugated goat anti-rabbit) was then added to the well, and incubation was conducted for 1 hour at room temperature. At the conclusion of the incubation, the plate was washed three times (wash buffer from KPL Inc.) and Sure Blue Reserve HRP Substrate was added. Following a 5-10 min incubation, the reaction (which had turned blue to varying degrees) was stopped by the addition of a stop reagent (KPL). The plate was then shaken gently for 5 seconds and the absorbance at 450 nm read on a Tecan Plate reader. Absorbance from each sample were compared to standard curve of purified recombinant human SOD-1 assayed on the same ELISA plate, and SOD-1 immunoreactivity (ng/ml) was estimated by comparison with the standard curve. This example describes how to examine the in vitro effects of the antimalarial drug, pyrimethamine, as well as the compounds listed in Tables 1 through 5, on SOD-1 activity. The human cervical carcinoma derived HeLa cell line (ATCC) were cultured in Dulbecco's Minimal Essential Medium, with high glucose, supplemented with glutamine, 4 mM, certified fetal bovine serum, 10%, and penicillin, streptomycin, and nystatin (all from Invitrogen). Incubation conditions were 37° C. and 99% relative humidity, with CO2 at 5%. Cultures were passaged when they reached 90% confluence. For pharmacological experiments, cells were plated into sterile tissue culture treated 96 well plates at a density of 3,500 cells/well in 150 μl medium. Following 72 hours of incubation with each of the compounds, the cells were photographed and processed as described in Example 1 (iii). The total protein of the lysates was determined by Bradford assay as described in Example 1 (iv).
`CN(Cc1cnc2nc(N)nc(N)c2n1)c1ccc(C(=O)N[C@@H](CCC(=O)O)C(=O)O)cc1` [methotrexate, reference compound]: the “levels of SOD-1 protein in HeLa cells” value is recorded as “did not reduce”.

The assay is the same for the next values; noted with them: Table 1B; % reduction of hSOD-1 protein levels in HeLa cells, 72 h treatment, 10 μM.
For the compound `COc1ccc(Cc2c(Cl)nc(SC)nc2Cl)cc1` [Compound 12], the “Biological Activity (% inhibition at 10 μM)” value came out at 40%.
Take `COc1ccc(-c2cc(O)ncn2)cc1OC` [Compound 89]: the “Biological Activity (% inhibition at 10 μM)” value was 84%.
With `CN(C)c1cc(Cl)nc(SCc2ccccc2)n1` [Compound 2], the “Biological Activity (% inhibition at 10 μM)” value stood at 77%.
With `CC(=O)c1c(C)nc(-c2ccc(Cl)cc2)nc1N` [Compound 107], the “Biological Activity (% inhibition at 10 μM)” value came to 52%.
Still for that read-out and setting: the result for `Oc1ccnc(SCc2ccc(Cl)cc2Cl)n1` [Compound 99] reads 66%.
Turning to `Cc1nc(N)nc(N)c1CCCCc1ccc(O)cc1` [Compound 27], the “Biological Activity (% inhibition at 10 μM)” value is listed as 95%.
On the same count and under the same terms, to `Cc1cccc(Oc2cnc(S)nc2O)c1` [Compound 7] belongs 94%; to `Cc1cnc(SCc2ccccc2Cl)nc1O` [Compound 5], 79%; to `Cc1ccccc1CCCc1c(C)nc(N)nc1N` [Compound 118], 31%.
In the case of `Nc1nc(S)ncc1-c1cccc(Cl)c1` [Compound 8], the “Biological Activity (% inhibition at 10 μM)” value amounted to 99%.
In the case of `COc1ccc(Cc2c(C)nc(N)nc2O)cc1` [Compound 98], the “Biological Activity (% inhibition at 10 μM)” value was 67%.
On the same count and under the same terms, to `Cc1cc(-c2ccccc2)nc(N(C)C)n1` [Compound 1] belongs 33%; to `Cc1nc(N)nc(N)c1-c1ccc(Cl)c(Cl)c1` [Compound 112], 36%; to `Nc1nc(SCC(=O)O)ncc1-c1ccc(Cl)cc1` [Compound 24], 99%.
On the same count and under the same terms, the result for `N#Cc1ccc(CSc2nc(O)cc(O)n2)cc1` [Compound 9] reads 58%; that for `Oc1ccnc(SCc2c(F)cccc2Cl)n1` [Compound 101], 65%.
On the same count and under the same terms, the result for `COc1cc(N)nc(SCc2ccccc2Cl)n1` [Compound 113] reads 36%; that for `Cc1ccc(Oc2cnc(S)nc2O)cc1` [Compound 25], 97%; that for `CCc1c(O)ncnc1-c1ccc(C)cc1` [Compound 96], 70%.
For `CSc1ncc(Oc2ccc(Cl)cc2)c(O)n1` [Compound 88], the “Biological Activity (% inhibition at 10 μM)” value is 90%.
Same read-out and setting: the result for `CCCOc1ccc(-c2cnc(S)nc2N)cc1` [Compound 10] reads 99%; that for `Cc1nc(N)nc(N)c1OCCc1ccc(Cl)cc1` [Compound 111], 37%.
On the same count and under the same terms, to `CSc1ccc(CCCc2c(C)nc(N)nc2N)cc1` [Compound 97] belongs 69%.
Turning to `Cc1nc(N)nc(N)c1C=Cc1ccccc1` [Compound 109], the “Biological Activity (% inhibition at 10 μM)” value was found to be 38%.
Still for that read-out and setting: to `COc1ccc(Cc2c(O)nc(S)nc2O)cc1` [Compound 116] belongs 33%; to `Cc1nc(N)nc(N)c1OCc1ccc(Cl)cc1Cl` [Compound 110], 38%; to `Cc1nc(N)nc(O)c1C=CCc1ccc(Cl)cc1` [Compound 26], 97%.
On the same count and under the same terms, to `CCc1nc(N)nc(N)c1-c1ccc(Cl)cc1` [Compound 6] belongs 50%; to `Cc1ccc(Nc2nc(Cl)nc(Cl)c2Cl)cc1` [Compound 4], 96%; to `Nc1ccc(Sc2cc(Cl)nc(N)n2)cc1` [Compound 92], 81%.
On the same count and under the same terms, to `Nc1nc(O)ncc1-c1ccc(Cl)cc1` [Compound 23] belongs 99%; to `N#Cc1c(Cl)nc(Cl)nc1Nc1ccccc1` [Compound 106], 53%; to `CC(Oc1ccc(Cl)cc1)c1ccnc(N)n1` (stereo not shown) [Compound 22], 84%.
As for `COc1ccc(Cc2cnc(N)nc2N)cc1OC` [Compound 102], the “Biological Activity (% inhibition at 10 μM)” value is reported as 64%.
Consider `N#Cc1ccc(CSc2nccc(O)n2)cc1` [Compound 105], for which the “Biological Activity (% inhibition at 10 μM)” value came to 53%.
Consider `CCOc1ccc(-c2cnc(S)nc2N)cc1` [Compound 11], for which the “Biological Activity (% inhibition at 10 μM)” value was 99%.
The same measure, in the same setting: the result for `Cc1cc(C)nc(SCc2cccc(Br)c2)n1` [Compound 3] reads 88%.
On the same count and under the same terms, the result for `Cc1cc(C)nc(Sc2ccc(N)cc2)n1` [Compound 94] reads 77%; that for `Cc1cc(O)nc(SCc2ccc(Cl)cc2Cl)n1` [Compound 114], 35%.
`COc1ccc(CCCc2c(C)nc(N)nc2N)cc1` [Compound 100]: the “Biological Activity (% inhibition at 10 μM)” value came to 65%.
On the same count and under the same terms, to `Cc1cc(C)nc(NC(=N)Nc2cccc(Cl)c2)n1` [Compound 93] belongs 78%.
With `CSc1nc(N)nc(-c2ccc(Cl)cc2)c1C#N` [Compound 95], the “Biological Activity (% inhibition at 10 μM)” value was determined as 76%.

The assay is the same for the next values; noted with them: Table 2; % reduction of hSOD-1 protein levels in HeLa cells, 72 h treatment, 10 μM.
Turning to `CC(Nc1nc(N)nc(Cl)n1)c1ccccc1` (stereo not shown) [Compound 188], the “Biological Activity (% inhibition at 10 μM)” value is given as 38%.
The same measure, in the same setting: to `CCCCNc1nc(N)nc(-c2cc(Cl)ccc2O)n1` [Compound 170] belongs 99%; to `Nc1nc(Nc2ccc(Cl)cc2)nc(C(Cl)Cl)n1` [Compound 193], 29%.
On the same count and under the same terms, to `Nc1nc(N)nc(-c2cccc([N+](=O)[O-])c2)n1` [Compound 192] belongs 32%.
Still for that read-out and setting: to `CCCNc1nc(N)nc(-c2cc(Cl)ccc2OC)n1` [Compound 191] belongs 32%.
For `Nc1nc(N)nc(-c2ccccc2Cl)n1` [Compound 190], the “Biological Activity (% inhibition at 10 μM)” value amounted to 34%.
The same measure, in the same setting: to `CNc1nc(N)nc(-c2cc(Cl)ccc2OC)n1` [Compound 189] belongs 35%; to `CCSc1nc(-c2ccccc2)nc(C(Cl)Cl)n1` [Compound 166], 98%.
On the same count and under the same terms, the result for `Nc1nc(CCl)nc(Nc2ccccc2)n1` [Compound 187] reads 77%.
On the same count and under the same terms, the result for `CC(C)Nc1nc(Cl)nc(-c2ccccc2)n1` [Compound 186] reads 82%; that for `Cc1ccc(Nc2nc(N)nc(CCl)n2)c(C)c1` [Compound 165], 99%; that for `Cc1ccc(Nc2nc(N)nc(Cl)n2)cc1` [Compound 164], 43%.
With `CSc1nc(-c2ccc(C)cc2)nc(C(Cl)Cl)n1` [Compound 168], the “Biological Activity (% inhibition at 10 μM)” value is recorded as 75%.

Staying with this assay, now noted: Table 3; % reduction of hSOD-1 protein levels in HeLa cells, 72 h treatment, 10 μM.
In the case of `COc1cccc2oc(-c3ccccc3O)cc(=O)c12` [Compound 121], the “Biological Activity (% inhibition at 10 μM)” value came out at 71%.

The same assay, now with this note: Table 4 quinazolines; % reduction of hSOD-1 protein levels in HeLa cells following 72 h treatment with 10 μM compound.
Regarding `CN1CCN(c2cc(C(F)(F)F)nc3ccc(F)cc23)CC1` [Compound 136], the “Biological Activity (% inhibition at 10 μM)” value amounted to 64%.

Staying with this assay, now noted: Table 5 heterocyclic amides; % reduction of hSOD-1 protein levels in HeLa cells following 72 h treatment with 10 μM compound.
Take `Cc1ccc(C(=O)Nc2ncccc2Cl)cc1` [Compound 197]: the “Biological Activity (% inhibition at 10 μM)” value is reported as 74%.
As to `Cc1ccnc(NC(=O)c2cccc(Cl)c2)c1` [Compound 198], the “Biological Activity (% inhibition at 10 μM)” value was 67%.
Same read-out and setting: the result for `Cc1ccc(C(=O)Nc2ccc(Cl)cn2)cc1C` [Compound 200] reads 39%; that for `Cc1cccc(C(=O)Nc2ccc(Cl)cn2)c1` [Compound 201], 39%; that for `Nc1ccc(C(=O)Nc2ncccn2)cc1` [Compound 194], 92%.
Same read-out and setting: to `Cc1ccc(NC(=O)c2cc(Cl)ccc2Cl)nc1` [Compound 199] belongs 94%.
